# Measured values reported in the supplement of paper PMC10331698.
# ± gives the standard deviation of the averaged measurements.
# Experiments:
# Test in all cases: level (log10 ratio to DMSO vehicle control); higher = higher biomarker level / cell amount than vehicle control
# [1] = compound: OCCCC(F)(F)C(F)(F)C(F)(F)C(F)(F)C(F)(F)C(F)(F)C(F)(F)C(F)(F)F [3-(Perfluorooctyl)propanol]; settings: 6700 nM; in DMSO
# Procedure: (§1)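 BioMAP Diversity Plus panel of 12 human primary cell co-culture systems (3C, 4H, LPS, SAg, BT, BF4T, BE3C, CASM3C, HDF3CGF, KF3CT, MyoF, Mphg). Compounds were added 1 h before stimulation and left for 24 h (MyoF 48 h; BT 72 h for soluble read-outs or 6 d for IgG). Biomarkers were read by ELISA, cytotoxicity by SRB, PBMC viability and proliferation by Alamar Blue. Each well value was divided by the mean of 8 DMSO control wells on the same plate and log10 transformed; duplicate blinded samples were tested at 4 concentrations.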
# [2] = compound: C=CC(=O)OCCC(F)(F)C(F)(F)C(F)(F)C(F)(F)C(F)(F)C(F)(F)C(F)(F)C(F)(F)F [8:2 Fluorotelomer acrylate]; settings: in DMSO
# Procedure: as §1
# [3] = compound: OCCC(F)(F)C(F)(F)C(F)(F)C(F)(F)C(F)(F)C(F)(F)C(F)(F)C(F)(F)F [8:2 Fluorotelomer alcohol]; settings: 6700 nM; in DMSO
# Procedure: as §1
# [4] = compound: C=CC(=O)OCC(F)(F)C(F)(F)C(F)(F)C(F)(F)COC(=O)C=C [1H,1H,6H,6H-Perfluorohexane-1,6-diol diacrylate]; settings: 6700 nM; in DMSO
# Procedure: as §1
# [5] = compound: C=C(C)C(=O)OCC(F)(F)C(F)(F)C(F)(F)F [2,2,3,3,4,4,4-Heptafluorobutyl methacrylate]; settings: in DMSO
# Procedure: as §1
# [6] = compound: FC(F)(F)C(F)(F)C(F)(F)C(F)(F)CCI [1H,1H,2H,2H-Perfluorohexyl iodide]; settings: in DMSO
# Procedure: as §1
# [7] = compound: O=C(O)C(F)(F)C(F)(F)C(F)(F)C(F)(F)C(F)(F)C(F)(F)C(F)(F)F [Ammonium perfluorooctanoate]; settings: in DMSO
# Procedure: as §1
# [8] = compound: C=CC(=O)OCC(F)(F)C(F)(F)C(F)(F)C(F)(F)C(F)(F)C(F)(F)C(F)(F)C(F)F [1H,1H,9H-Perfluorononyl acrylate]; settings: in DMSO
# Procedure: as §1
Test System,level (log10) [1],level (log10) ([2]; 6700 nM),level (log10) ([2]; 20000 nM),level (log10) ([2]; 60000 nM),level (log10) [3],level (log10) [4],level (log10) ([5]; 6700 nM),level (log10) ([5]; 20000 nM),level (log10) ([5]; 60000 nM),level (log10) ([6]; 6700 nM),level (log10) ([6]; 20000 nM),level (log10) ([6]; 60000 nM),level (log10) ([7]; 6700 nM),level (log10) ([7]; 20000 nM),level (log10) ([7]; 60000 nM),level (log10) ([8]; 6700 nM),level (log10) ([8]; 20000 nM),level (log10) ([8]; 60000 nM)
lMphg:CXCL8/IL-8,0.0655 ± 0.015,-0.009 ± 0.052,0.019 ± 0.035,0.0665 ± 0.029,0.076 ± 0.024,0.0035 ± 0.0092,0.037 ± 0.038,0.026 ± 0.021,0.027 ± 0.038,-0.0325 ± 0.0035,-0.006 ± 0.0085,0.0355 ± 0.018,0.0185 ± 0.026,0.099 ± 0.0057,0.222 ± 0.033,0.014 ± 0.02,0.0025 ± 0.0064,0.038 ± 0.014
3C:CD62E/E-Selectin,-0.024 ± 0.0099,-0.0165 ± 0.011,-0.0145 ± 0.022,0.001 ± 0.035,-0.016 ± 0.0099,-0.066 ± 0.0057,-0.005 ± 0.011,-0.014 ± 0.0042,-0.0015 ± 0.013,-0.003 ± 0.0042,-0.0225 ± 0.018,0.005 ± 0.014,0.006 ± 0.011,-0.007 ± 0.017,0.0085 ± 0.046,-0.005,-0.019 ± 0.0099,-0.014 ± 0.018
3C:CD141/Thrombomodulin,-0.0055 ± 0.019,-0.0015 ± 0.036,-0.0295 ± 0.0035,0.023 ± 0.072,0.044 ± 0.0057,-0.079 ± 0.021,-0.009 ± 0.0099,-0.0145 ± 0.013,0.002 ± 0.0071,-0.041 ± 0.051,-0.0175 ± 0.052,0.0165 ± 0.059,-0.01 ± 0.017,-0.0185 ± 0.012,-0.0375 ± 0.032,-0.042 ± 0.0028,-0.076 ± 0.028,-0.114 ± 0.016
HDF3CGF:M-CSF,-0.258 ± 0.0092,-0.0205 ± 0.011,-0.0375 ± 0.0021,-0.0165 ± 0.013,-0.044 ± 0.028,-0.588 ± 0.054,0.0085 ± 0.00071,0.0255 ± 0.0078,0.0135 ± 0.029,-0.015 ± 0.0085,-0.0295 ± 0.0064,-0.074 ± 0.014,0.002 ± 0.037,0.034 ± 0.017,-0.049 ± 0.042,-0.039,-0.079 ± 0.041,-0.254 ± 0.076
HDF3CGF:CCL2/MCP-1,-0.284 ± 0.03,-0.03 ± 0.017,-0.042 ± 0.031,-0.0805 ± 0.044,-0.0175 ± 0.032,-0.437 ± 0.0028,0.0055 ± 0.012,-0.001 ± 0.0057,-0.0115 ± 0.018,-0.0045 ± 0.005,0.0155 ± 0.012,0.007 ± 0.021,-0.0285 ± 0.0092,-0.0605 ± 0.0078,-0.068 ± 0.014,-0.0315 ± 0.03,-0.045 ± 0.03,-0.0815 ± 0.046
BE3C:PAI-I,-0.008 ± 0.0014,-0.0355 ± 0.0092,-0.018,0.0055 ± 0.025,-0.055 ± 0.021,0.0495 ± 0.025,-0.0505 ± 0.043,-0.003 ± 0.055,0.017 ± 0.064,-0.0335 ± 0.0064,-0.0305 ± 0.036,-0.051 ± 0.0085,0.014 ± 0.023,0.0045 ± 0.005,0.0255 ± 0.016,-0.029 ± 0.031,-0.003 ± 0.018,-0.02 ± 0.011
lMphg:sIL-10,-0.027 ± 0.013,-0.058 ± 0.016,-0.014 ± 0.062,-0.0465 ± 0.012,-0.17 ± 0.013,-0.067 ± 0.014,-0.0245 ± 0.028,-0.0155 ± 0.005,-0.0165 ± 0.0035,-0.072 ± 0.047,-0.043 ± 0.03,-0.0495 ± 0.042,-0.0655 ± 0.049,-0.042 ± 0.021,-0.16 ± 0.028,-0.0335 ± 0.015,0.0005 ± 0.0092,0.029 ± 0.033
KF3CT:CD54/ICAM-1,-0.062 ± 0.024,0.003 ± 0.0042,-0.0155 ± 0.029,-0.0455 ± 0.019,-0.0195 ± 0.0021,-0.076 ± 0.0028,0.0015 ± 0.016,-0.003 ± 0.016,0.0085 ± 0.005,-0.0045 ± 0.025,0.016 ± 0.016,-0.005 ± 0.027,0.004 ± 0.016,-0.0165 ± 0.018,-0.03 ± 0.023,-0.0185 ± 0.005,-0.0245 ± 0.0078,-0.048 ± 0.0085
MyoF:Collagen III,-0.0205 ± 0.00071,-0.0105 ± 0.0078,-0.019 ± 0.0085,-0.03 ± 0.0028,-0.0205 ± 0.021,-0.037 ± 0.045,0.0075 ± 0.0021,0 ± 0.0014,0.0085 ± 0.0078,0.0045 ± 0.0092,-0.007 ± 0.0014,-0.007 ± 0.021,0.0015 ± 0.00071,-0.0095 ± 0.0064,-0.0225 ± 0.0021,0.0015 ± 0.005,-0.029 ± 0.011,-0.102 ± 0.0014
HDF3CGF:CXCL9/MIG,-0.0895 ± 0.054,-0.0115 ± 0.015,-0.007 ± 0.011,-0.007 ± 0.0042,0.004 ± 0.0028,-1.14 ± 0.041,-0.0185 ± 0.005,-0.024 ± 0.0071,-0.0395 ± 0.011,0.0105 ± 0.028,0.007 ± 0.0085,-0.096 ± 0.016,-0.0195 ± 0.0092,-0.0085 ± 0.025,-0.0915 ± 0.047,-0.0315 ± 0.025,-0.083 ± 0.025,-0.215 ± 0.071
KF3CT:PAI-I,-0.104 ± 0.077,-0.009 ± 0.014,0.0155 ± 0.012,0.001 ± 0.0085,-0.0255 ± 0.018,0.048 ± 0.0071,0.005 ± 0.0099,0.008 ± 0.0014,0.014,-0.0025 ± 0.023,-0.001 ± 0.013,-0.0225 ± 0.015,-0.0015 ± 0.0021,-0.018 ± 0.0099,-0.01 ± 0.0099,-0.017,-0.023 ± 0.042,-0.0465 ± 0.022
CASM3C:M-CSF,-0.0325 ± 0.025,0.003 ± 0.0057,0.0095 ± 0.032,0.0185 ± 0.04,-0.0135 ± 0.012,-0.105 ± 0.016,0.003 ± 0.016,0.0245 ± 0.019,0.024 ± 0.0099,-0.013 ± 0.0014,-0.02 ± 0.0014,0.0035 ± 0.049,-0.0045 ± 0.0021,0.011 ± 0.028,0.015 ± 0.05,-0.0225 ± 0.06,0.001 ± 0.031,-0.041 ± 0.071
lMphg:SRB-Mphg,-0.049 ± 0.072,-0.026 ± 0.0014,-0.012 ± 0.021,0.003 ± 0.037,-0.015 ± 0.03,-0.0115 ± 0.084,0.003,-0.0115 ± 0.016,0.0155 ± 0.016,-0.0005 ± 0.03,-0.004 ± 0.031,0.0005 ± 0.025,-0.0045 ± 0.0092,0.006 ± 0.0057,-0.007 ± 0.02,-0.1115 ± 0.00071,-0.082 ± 0.11,0.0085 ± 0.097
BE3C:MMP-1,0.064 ± 0.0042,-0.015 ± 0.0085,-0.013 ± 0.023,0.0365 ± 0.08,0.0275 ± 0.021,-0.0035 ± 0.011,-0.012 ± 0.0014,-0.0055 ± 0.015,0.048 ± 0.014,0 ± 0.023,0.017 ± 0.021,0.0975 ± 0.023,0.034 ± 0.018,0.113 ± 0.014,0.283 ± 0.041,-0.023 ± 0.013,-0.009 ± 0.027,0.038 ± 0.064
